Data published in patent US20210179623A1, “NEW CHEMICAL COMPOUND CONTAINING ACTIVE ENANTIOMETER S-(-) KETOROLAC TROMETHAMINE FOR THE TREATMENT OF PAIN” (priority 2017, published 2021).
Where two headings read alike, the source gives them in different places.

What was measured:
[1] = system: gouty arthritis-type pain; assay: PIFIR pain-induced functional impairment model in the rat; assay type: in vivo, male Wistar rats; conditions: for MAXIMUM EFFICACY (ABC: X ± E.E.): dose of each analgesic (mg/kg); for Emax reached in the temporal curve / latency in reaching the Emax in the temporal curve: highest doses; for RELATIVE EFFICACY: relative to maximum efficacy of rac-ketorolac
Description: In order to determine and compare the antinociceptive effects of these analgesics the preclinical experimental model of PIFIR “pain-induced functional impairment model in the rat” was used.

rat population = conditions: rats, oral route; FIG. 7
[2] = cited from earlier work
plasmatic proteins = conditions: cited from earlier work
[3] = doses needed to generate 50% of the most effective effect, oral route

Compound | effective dose 50 (ED50, 50% of its own maximum effect) ([1]; PIFIR model, rats, oral route, FIG. 6) | MAXIMUM EFFICACY (ABC: X ± E.E.) ([1]; PIFIR model, rats, oral route) | ED60 (mg/kg, oral route) (with regard to Emax: 324 au) ([1]; PIFIR model, rats) [mg/kg] | times more potent than acetylsalicylic acid [1, 3] [times] | times more potent than morphine [1, 3] [times] | times more potent than rac-ketorolac [1, 3] [times] | fixed effect 4 hours after administration ([1]; higher doses, oral route, 4 hours) | Emax reached in the temporal curve ([1]; oral route) | latency in reaching the Emax in the temporal curve ([1]; oral route) | lethal dose 50 (LD50) (rat population) | RELATIVE POTENCY (relative to 5-ketorolac) ([1]; PIFIR model, rats, oral route) | RELATIVE EFFICACY ([1]; PIFIR model, rats, oral route) | onset of the analgesic effects after administration ([2]; any presentation) [min] | excreted renally as a conjugated metabolite ([2]; in vivo) [%] | excreted renally as a hydroxylated metabolite ([2]; in vivo) [%] | excreted renally as the unaltered drug ([2]; in vivo) [%] | metabolized in the liver by conjugation ([2]; inactive metabolites) [%] | time of maximum level ([2]; intravenous and intramuscular use) | time of maximum level ([2]; oral administration, tablets or capsules) [h] | bonds with plasmatic proteins (plasmatic proteins) [%]
2-amino-2-hydroximethyl-1,3 propanediol (1:1) S-(−)-5-benzoyl-2,3-dihydro-1H-pyrrolizine-1-carboxylate [S-(−)-ketorolac tromethamine] | less than the rest of the active substances being studied | 310.5 ± 13.5 | 0.36 ± 1.0 | 1037 | 82 | 3.3 | the same as that exhibited for rac-ketorolac and by morphine but higher than that exhibited by acetylsalicylic acid | Emax similar to that exhibited by rac-ketorolac and morphine, but this Emax was higher than that exhibited by acetylsalicylic acid | latency similar to that exhibited by rac-ketorolac, but less than that exhibited by morphine | smaller than the acetylsalicylic acid, but larger than the one reported for rac-ketorolac and morphine | – | – | – | – | – | – | – | – | – | –
O=C(c1ccccc1)c1ccc2n1CCC2C(=O)O (racemic) [rac-ketorolac, ketorolac tromethamine] | – | 324.6 ± 7.8 | 1.19 ± 1.2 | – | – | – | – | – | – | – | −3.3 | 1.0 | 30 | 21.9 | 11.5 | 60.2 | 21 | first and second hour | 3 | 99
CC(=O)Oc1ccccc1C(=O)O [Acetylsalicylic Acid, acetylsalicylic acid] | – | 226.6 ± 11.7 | 373.3 ± 1.7 | – | – | – | – | smaller than those exhibited by the other analgesics | least latency in reaching its Emax | – | −1,036.9 | 0.70 | – | – | – | – | – | – | – | –
CN1CC[C@]23c4c5ccc(O)c4O[C@H]2[C@@H](O)C=C[C@H]3[C@H]1C5 [Morphine, morphine] | – | 310.8 ± 8.9 | 29.35 ± 1.1 | – | – | – | – | – | – | – | −81.5 | 1.0 | – | – | – | – | – | – | – | –
